In series [1] the target is T1, hERG potassium ion channel (Homo sapiens, UniProt Q12809).
T1 construct: expressed in transfected cells; host or cells: HEK293
Briefly: hERG Assay (Assay 4). The series is classed as cell-based. The settings on record: HEK293 cells stably transfected with hERG cDNA, pH 7.4, comparator compounds, Table 4, compound at 3 μM. As to the method: Compounds of the invention were tested in vitro against the hERG (human ether-à-go-go-related gene) potassium ion channel (a surrogate for IKr, the rapidly activating delayed rectifier cardiac potassium ion channel).
The buffer was HEPES-buffered physiological saline (HB-PS) solution composed of: 137 mM NaCl, 4.0 mM KCl, 1.8 mM CaCl2, 1 mM MgCl2, 10 mM HEPES, 10 mM glucose, pH adjusted to 7.4 with NaOH, and 0.3% DMSO. Chemicals used in solution preparation were purchased from Sigma-Aldrich (St. Louis, Mo.), unless otherwise noted, and were of ACS reagent grade purity or higher.
HEK (human embryonic kidney) 293 cells were stably transfected with hERG cDNA.
For the patch clamp experiment, onset and steady state inhibition of hERG potassium current was measured using a pulse pattern with fixed amplitudes (depolarization: +20 mV for 2 s; repolarization: −50 mV for 2 s) repeated at 10 s intervals from a holding potential of −80 mV. Peak tail current was measured during the 2 s step to −50 mV. A steady state was maintained for at least 30 seconds before applying compound or positive control (cisapride). Peak tail currents were measured until a new steady state was achieved.
Data acquisition and analyses were performed using the suite of pCLAMP® (ver. 8.2) programs (MDS Analytical Technologies, Sunnyvale, Calif.). […]
A general note: hERG is a cardiac potassium channel; its block is linked to QT prolongation.

For a further series, the system named is IL-17A production. Briefly: Human Whole Blood Assay (Assay 3). The settings on record: comparator compounds, Table 4, IL-17A, read-out: 50% Human Whole Blood Assay IC50, nM^B (Assay 3). The format is cell-based. As to the method:
Human Whole Blood Assay (Assay 3)
Compounds of the invention were tested in the human whole blood assay to measure their effects on IL-17A production as determined by cytokine secretion into 50% blood/media supernatant. Mixtures of sodium heparinized whole blood (isolated from healthy human donors) and the T cell activator CytoStim, in the presence or absence of compound, were plated in sterilized, tissue culture-treated 24-well plates. Specifically, the mixtures in each well were as follows: (1) 500 μL of whole blood, (2) 250 μL of compound diluted into RPMI-1640 media containing 10% HyClone™ FCS (Thermo Fisher Scientific, Waltham, Mass.), Gibco® Pen/Strep and Gibco® NEAA (Life Technologies, Grand Island, N.Y.), and (3) 250 μL of CytoStim (Miltenyi Biotech, Germany) diluted to a final concentration of 10 μL/mL in complete cell culture medium.
IL-17A cytokine expression was determined using 25 μL of the transferred supernatant diluted with 25 μL of Diluent 43 from the Human IL-17A V-PLEX™ kit (cat. # K151RFD-4, Meso Scale Discovery, Rockville, Md.). The assay was performed according to the manufacturer's instructions using included reagents. The IL-17A V-PLEX™ plates were read using the Meso Scale Discovery Imager (Model 1200).

The structures appear in SMILES notation. A value given as a limit tells only on which side of the number the result lay.

T1 sequence (Q12809 whole entry): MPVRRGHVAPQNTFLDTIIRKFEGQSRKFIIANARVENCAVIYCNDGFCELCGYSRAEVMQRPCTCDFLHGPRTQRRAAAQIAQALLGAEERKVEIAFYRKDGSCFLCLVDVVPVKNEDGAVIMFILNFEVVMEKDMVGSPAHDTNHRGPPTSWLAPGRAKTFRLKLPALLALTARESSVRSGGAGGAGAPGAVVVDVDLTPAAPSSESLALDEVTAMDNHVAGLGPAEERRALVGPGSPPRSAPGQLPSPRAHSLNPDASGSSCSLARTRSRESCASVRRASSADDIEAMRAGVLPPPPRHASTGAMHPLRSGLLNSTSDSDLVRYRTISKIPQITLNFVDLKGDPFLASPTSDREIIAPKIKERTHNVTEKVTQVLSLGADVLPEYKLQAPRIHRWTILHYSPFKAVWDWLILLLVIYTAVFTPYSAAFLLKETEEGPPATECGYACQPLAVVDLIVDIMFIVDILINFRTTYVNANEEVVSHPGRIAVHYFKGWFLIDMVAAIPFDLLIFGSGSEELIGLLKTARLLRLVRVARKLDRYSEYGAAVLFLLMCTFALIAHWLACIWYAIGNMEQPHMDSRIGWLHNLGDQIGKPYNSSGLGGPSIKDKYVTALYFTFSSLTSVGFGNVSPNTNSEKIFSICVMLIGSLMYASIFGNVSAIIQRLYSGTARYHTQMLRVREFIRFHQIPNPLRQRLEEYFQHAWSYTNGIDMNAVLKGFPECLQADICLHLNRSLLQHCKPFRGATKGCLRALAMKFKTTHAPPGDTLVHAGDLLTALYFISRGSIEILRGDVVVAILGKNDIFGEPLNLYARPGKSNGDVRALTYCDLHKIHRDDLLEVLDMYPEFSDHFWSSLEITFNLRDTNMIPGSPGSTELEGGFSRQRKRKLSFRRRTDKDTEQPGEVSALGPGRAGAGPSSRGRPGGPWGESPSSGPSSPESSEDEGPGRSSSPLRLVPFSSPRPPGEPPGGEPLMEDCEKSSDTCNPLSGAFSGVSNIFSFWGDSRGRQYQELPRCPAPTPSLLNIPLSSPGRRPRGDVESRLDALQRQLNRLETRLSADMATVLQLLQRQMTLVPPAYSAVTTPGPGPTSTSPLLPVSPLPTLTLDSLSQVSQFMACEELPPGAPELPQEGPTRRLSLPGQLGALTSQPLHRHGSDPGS

A word on the inhibition: it is the change of the read-out against control, counted positive when it falls. In series [1], `CCS(=O)(=O)c1ccc(CNC(=O)c2cnc3c(c2)CN(C[C@H]2CC[C@H](C(F)(F)F)CC2)[C@H]3C(C)C)cc1` yielded an inhibition at 3 µM of 57%. The term IC50 denotes the point on the concentration scale where inhibition reaches its midpoint. As to `CCS(=O)(=O)c1ccc(CNC(=O)c2cnc3c(c2)CN(C[C@H]2CC[C@H](C(F)(F)F)CC2)[C@H]3C(C)C)nc1` [reference compound], in the series with IL-17A production, the IC50 was more than 200 nM. The same molecule registered an inhibition at 3 µM in series [1] of 45.4%.

Values taken from patent US9481674B1, “Dihydropyrrolopyridine inhibitors of ROR-gamma” (Vitae Pharmaceuticals, Inc., priority 2016, dated 2016).
